According to article PMC9599613 (Biomolecules, 2022):

Key:
[1] = target: T1, acetylcholinesterase (AChE) (Electrophorus electricus, UniProt O42275); experiment: Anticholinesterase assay (Ellman's), AChE inhibition; format: biochemical
T1 construct: acetylcholinesterase (AChE, obtained from Electrophorus electricus); from tissue
Description: (§1) This enzyme method relied on the hydrolytic of acetyl cholinethioiodide (ATChI) by acetylcholinesterase and butyrylthiocholine iodide (BTchI) by butyrylcholinesterase. As a result of this breakdown, 5-thio-2-nitrobenoate anions formed. […] The absorption was measured with a spectrophotometer, as per the protocols. […] An amount of 0.1 M phosphate buffer (8.0 ± 0.1 pH) solution was prepared, whose final pH was adjusted by using the KOH solution.
(§2) In this assay, 50 µL enzyme solution and 50 µL DTNB reagent were added to 1 mL test samples in a cuvette and then incubated at 30 °C for 15 min. Afterward, a 50 µL substrate solution was added to the mixture.

[2] = target: T2, butyrylcholinesterase (BChE) (Equus caballus, UniProt P81908); experiment: Anticholinesterase assay (Ellman's), BChE inhibition; format: biochemical, equine
T2 construct: butyrylcholinesterase (BChE, obtained from equine serum); from tissue; host or cells: equine serum
T2 sequence (P81908 whole entry): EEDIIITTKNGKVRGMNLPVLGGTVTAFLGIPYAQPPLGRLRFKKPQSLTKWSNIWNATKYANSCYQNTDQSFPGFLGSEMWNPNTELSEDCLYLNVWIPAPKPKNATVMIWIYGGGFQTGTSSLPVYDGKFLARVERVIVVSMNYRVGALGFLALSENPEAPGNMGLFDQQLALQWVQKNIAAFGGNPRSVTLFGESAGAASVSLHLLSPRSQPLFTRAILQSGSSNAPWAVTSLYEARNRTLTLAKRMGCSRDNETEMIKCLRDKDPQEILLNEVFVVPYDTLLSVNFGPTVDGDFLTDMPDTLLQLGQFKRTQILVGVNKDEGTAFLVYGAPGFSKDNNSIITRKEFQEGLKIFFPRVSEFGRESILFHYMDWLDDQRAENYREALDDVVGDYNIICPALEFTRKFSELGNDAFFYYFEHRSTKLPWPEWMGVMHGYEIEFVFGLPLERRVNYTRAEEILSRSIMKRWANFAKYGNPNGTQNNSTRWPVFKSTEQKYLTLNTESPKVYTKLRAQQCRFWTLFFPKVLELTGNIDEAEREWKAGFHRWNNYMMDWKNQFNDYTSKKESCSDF
Description: as §1, §2

[3] = DPPH free radical scavenging assay
Description: The antioxidant potentials of isolated compounds (phytosteroids 1 and 2) were determined following the DPPH standard assay. Initially, DPPH (24 mg) was dissolved in methanol (100 mL). Stock solutions of the test compounds were prepared in different dilutions (62.50–1000 μg/mL). From each dilution, 1 mL was mixed with 1 mL of the DPPH solution. The solution mixtures were incubated at room temperature for 0.5 h. Afterward, absorbance was recorded at 517 nm with a UV-visible spectrophotometer. Ascorbic acid was the standard drug, whereas the DPPH solution without the compound was negative control. The percent radical scavenging potential of the test compounds was calculated using the following formula: % DPPH activity=X−X1/X×100 where X = absorbance of the control, and X1 = absorbance of the test compound.

T1 sequence (O42275 24-633): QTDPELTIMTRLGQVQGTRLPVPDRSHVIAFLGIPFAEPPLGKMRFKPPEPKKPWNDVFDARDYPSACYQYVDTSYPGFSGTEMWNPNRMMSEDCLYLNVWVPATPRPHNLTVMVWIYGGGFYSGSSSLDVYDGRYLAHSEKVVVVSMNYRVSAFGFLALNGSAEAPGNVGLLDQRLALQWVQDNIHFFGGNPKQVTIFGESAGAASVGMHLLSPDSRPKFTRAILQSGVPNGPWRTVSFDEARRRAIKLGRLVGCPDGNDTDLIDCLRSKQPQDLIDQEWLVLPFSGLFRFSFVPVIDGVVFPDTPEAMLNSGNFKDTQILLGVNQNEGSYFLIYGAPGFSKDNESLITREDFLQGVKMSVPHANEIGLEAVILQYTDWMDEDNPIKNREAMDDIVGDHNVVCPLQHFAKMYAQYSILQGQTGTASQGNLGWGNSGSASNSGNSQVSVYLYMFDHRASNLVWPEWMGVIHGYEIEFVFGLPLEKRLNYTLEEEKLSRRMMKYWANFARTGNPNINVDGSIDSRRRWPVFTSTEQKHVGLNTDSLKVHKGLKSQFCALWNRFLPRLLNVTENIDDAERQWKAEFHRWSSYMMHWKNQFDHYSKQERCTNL

## CCC(CCC(C)C1CCC2C3CCC4=CC(=O)CCC4(C)C3CCC12C)C(C)C (stereo not shown) [Compound 2, 17-(5-ethyl-6-methylheptan-2-yl)-10,13-dimethyl-1,2,6,7,8,9,10,11,12,13,14,15,16,17-tetradecahydro-3H-cyclopenta[a]phenanthren-3-one]
[1]
  IC50: 35.2 µM
[1]; 62.5 μg/mL
  AChE inhibition (%): 58.12 ± 0.34 %
[1]; 125 μg/mL
  AChE inhibition (%): 63.47 ± 0.49 %
[1]; 250 μg/mL
  AChE inhibition (%): 68.75 ± 0.14 %
[1]; 500 μg/mL
  AChE inhibition (%): 75.59 ± 0.30 %
[1]; 1000 μg/mL
  AChE inhibition (%): 80.85 ± 0.18 %
[2]
  IC50: 25.8 µM
[2]; 62.5 μg/mL
  Percent BChE (mean ± SEM): 61.35 ± 0.18 %
[2]; 125 μg/mL
  Percent BChE (mean ± SEM): 66.20 ± 0.15 %
[2]; 250 μg/mL
  Percent BChE (mean ± SEM): 73.42 ± 0.11 %
[2]; 500 μg/mL
  Percent BChE (mean ± SEM): 78.62 ± 0.17 %
[2]; 1000 μg/mL
  Percent BChE (mean ± SEM): 83.53 ± 0.20 %
[3]
  DPPH IC50: 218.83 µg/mL
[3]; 62.5 μg/mL
  Percent DPPH Activity (mean ± SEM): 33.00 ± 1.15 %
[3]; 125 μg/mL
  Percent DPPH Activity (mean ± SEM): 42.67 ± 0.89 %
[3]; 250 μg/mL
  Percent DPPH Activity (mean ± SEM): 49.00 ± 0.58 %
[3]; 500 μg/mL
  Percent DPPH Activity (mean ± SEM): 63.03 ± 0.23 %
[3]; 1000 μg/mL
  Percent DPPH Activity (mean ± SEM): 71.33 ± 0.49 %
[3]; 1000 μg/mL, listed as compound 2
  Percent DPPH Activity (mean ± SEM): 71.33 ± 0.49%
